Reference: US20050154229A1, “Maleic acid salt of(2s)-n-{5-[amino(imino)methy]-2-thienyl}methyl-1-{(2r)-2-[(carboxymethyl)amino]-3,3-diphenylpropanoyl}-2-pyrrolidine carboxamide and a process for” (priority 2002, published 2005)
Structures can show the parent of a compound that is named as a salt.

Columns and labels:
Assay type in all cases: physicochemical
[1] = Moisture absorption and dehumidification tests at defined relative humidities (condition observed, weight change); settings: two days or more
Description: After 40 mg of the amorphous form of maleic acid salt prepared in Example 1 was thinly coated onto a beaker, the sample was moisture-absorbed by placing it at each relative humidity of 33%, 57%, 64%, 75% and 93% for two days or more and its condition was observed. In order to obtain each relative humidity above, as shown in the table below, saturated aqueous solutions of salts were prepared and then placed in a desiccator, and the desiccator was sealed.
100 mg of the crystalline form of maleic acid salt prepared in Example 2 was thinly coated onto a beaker and then placed at each relative humidity of 33%, 57%, 64%, 75% and 93% for two days or more to be moisture-absorbed. Thereafter, the weight change of the sample was measured while its condition is observed. In order to obtain each relative humidity above, as shown in Table 2 of Test example 2, saturated aqueous solutions of salts were prepared and then placed in a desiccator and the desiccator was sealed.
The method as described in Test example 2 was applied to the amorphous diHCl salt prepared in Comparative Example 1. From observing its change at each relative humidity, it is shown that the salt was deliquesced at the relative humidity of 75%. […] Therefore, it can be shown that the maleic acid salt is the most excellent among various acid salts.

[2] = Test of the dissolution rate per unit area (0.5 cm^2 disk in buffer solutions)
Description: Some compounds may have difficulty in being absorbed due to a low dissolution rate. To confirm the above difficulty beforehand, a disk having the area of 0.5 cm^2 is prepared, and then its dissolution rate in various media is measured. The dissolution amount over time is measured and its value is divided by the disk's area. The value is the dissolution rate per unit area. If the value is usually 1 mg/min/cm^2 or more, it can be said that there is no phenomenon for the drug not to be absorbed due to the low dissolution rate. If the value is 0.1 mg/min/cm^2 or less, it can be said that the drug has a problem of absorption due to the low dissolution rate (see, Howard C. Ansel, Nicholas G. Popovich and Loyd V. Allen, 1995, Pharmaceutical Dosage Forms and Drug Delivery Systems, 6th ed., Williams & Wilkins, pp.109 and Jens T. Carstensen, 1996, Modern Pharmaceutics: Gilbert S. Banker and Christopher T. Rhodes (Ed.), Drugs and the pharmaceutical sciences, Vol. 72, 3rd ed., Dekker, pp. 233.). Thus, measuring the dissolution rate per unit area has a very significant meaning in predicting the absorption problem that may occur in in vivo test of the drug later. Therefore, a compound having an excellent dissolution rate per unit area should be selected as a candidate for the drug development.
200 mg of the crystalline form of maleic acid salt prepared in Example 2 was put into a mold. By applying pressure on the mold, a disk having the area of 0.5 cm^2 was prepared and the disk was added to each of the buffer solutions (600 ml) of pH 3.8 and 7.4 to conduct the dissolution test. A portion of the solution was periodically taken and its concentration was measured to determine the dissolution rate per unit area.
The same test as Test example 5 was conducted on the free compound of Formula 1. The dissolution rate per unit area of the free compound was 1.3 mg/min/cm^2 at pH 3.8 and 0.3 mg/min/cm^2 at pH 7.4.

[3] = Powder X-ray diffraction test during moisture absorption and dehumidification; settings: vacuum dried, then relative humidity 33%, 53%, 64%, 75% and 93%, two days or more each
Description: 40 mg of the crystalline form of maleic acid salt prepared in Example 2 was thinly coated onto a sample holder and then the powder X-ray diffraction test was conducted according to the following conditions. By using Rigaku Geigeflex D/max-III C apparatus, the test was conducted at 35 kV, 20 mA.
40 mg of the maleic acid salt prepared in Example 2 was thinly coated onto a sample holder. Immediately after the sample was vacuum dried in the presence of P2O5, and after the sample was placed for moisture absorption at each relative humidity of 33%, 53%, 64%, 75% and 93% for two days or more, respectively, the powder X-ray diffraction test of the sample was conducted according to the conditions represented in the above Test example 1 to observe change of the crystalline form during moisture absorption. While lowering the relative humidity, the same test was repeated to observe change of the crystalline form during dehumidification. In order to obtain each relative humidity above, as shown in Table 2 of Test example 2, saturated aqueous solutions of salts were prepared and then placed in a desiccator and the desiccator was sealed.

N=C(N)c1ccc(CNC(=O)[C@@H]2CCCN2C(=O)[C@H](NCC(=O)O)C(c2ccccc2)c2ccccc2)s1.O=C(O)/C=C\C(=O)O [amorphous form of maleic acid salt, maleic acid salt of (2S)-N-{5-[amino(imino)methyl]-2-thienyl}methyl-1-{(2R)-2-[(carboxymethyl)amino]-3,3-diphenylpropanoyl}-2-pyrrolidine carboxamide]
condition observed after moisture absorption ([1]; relative humidity of 75%): hardened | condition observed after moisture absorption ([1]; relative humidity of 93%): deliquesced

N=C(N)c1ccc(CNC(=O)[C@@H]2CCCN2C(=O)[C@H](NCC(=O)O)C(c2ccccc2)c2ccccc2)s1 [free compound, (2S)-N-{5-[amino(imino)methyl]-2-thienyl}methyl-1-{(2R)-2-[(carboxymethyl)amino]-3,3-diphenylpropanoyl}-2-pyrrolidine carboxamide]
dissolution rate per unit area ([2]; buffer solution pH 3.8, 600 ml): 1.3 mg/min/cm^2 | dissolution rate per unit area ([2]; buffer solution pH 7.4, 600 ml): 0.3 mg/min/cm^2

N=C(N)c1ccc(CNC(=O)[C@@H]2CCCN2C(=O)[C@H](NCC(=O)O)C(c2ccccc2)c2ccccc2)s1.O=C(O)/C=C\C(=O)O [crystalline form of maleic acid salt, maleic acid salt of (2S)-N-{5-[amino(imino)methyl]-2-thienyl}methyl-1-{(2R)-2-[(carboxymethyl)amino]-3,3-diphenylpropanoyl}-2-pyrrolidine carboxamide]
weight increase on moisture absorption based on initial weight ([1]; relative humidity of 33%): 1.4% | weight increase on moisture absorption based on initial weight ([1]; relative humidity of 57%): 3.0% | weight increase on moisture absorption based on initial weight ([1]; relative humidity of 64%): 4.3% | weight increase on moisture absorption based on initial weight ([1]; relative humidity of 75%): 4.1% | condition observed after moisture absorption ([1]; relative humidity of 93%): not deliquesced | weight increase on moisture absorption based on initial weight ([1]; relative humidity of 93%): 6.7% | change of the powder X-ray diffraction diagram (crystalline form) during moisture absorption and dehumidification [3]: did not show any change | dissolution rate per unit area ([2]; buffer solution pH 3.8, 600 ml): 11.8 mg/min/cm^2 | dissolution rate per unit area ([2]; buffer solution pH 7.4, 600 ml): 1.7 mg/min/cm^2

N=C(N)c1ccc(CNC(=O)[C@@H]2CCCN2C(=O)[C@H](NCC(=O)O)C(c2ccccc2)c2ccccc2)s1 [amorphous diHCl salt]
condition observed after moisture absorption ([1]; relative humidity of 75%): deliquesced
